The subject of data set [1] is BRCA1/2 mutant ovary cancer. Nature of the data set: Phase I clinical safety study, capsules. The class given is in vivo, human.
A further data set addresses PARP2 (aa2-583) (Homo sapiens, UniProt Q9UGN5). Nature of the data set: PARP2 PARylation chemiluminescent assay. The class given is biochemical. Conditions: Crystalline Form C tested.
The next data set can be described thus: Hygroscopicity. Format: physicochemical.
Data set [2] can be described thus: Long term stability studies. The class given is physicochemical. Conditions: for Assay w/w, T12: 12 months; for Assay w/w, T0: start.
The nature of the next data set: Solubility study. Format: physicochemical.
Data set [3] concerns MDA-MB-436 cells (BRCA1 Deficient). Nature of the data set: Growth inhibition, CellTiter-Glo, 7-day exposure, MDA-MB-436. Format: cell-based, human. The note with it: for EC50: 7-day exposure, BRCA1 Deficient, read-out: EC50 for growth inhibition, MDA-MB-436 (Table 20). On the procedure: (§1) MDA-MB-231 cells that is not BRCA gene mutant or other homologous recombination deficient were maintained in DMEM supplemented with fetal bovine serum (10% FBS), 100 units/ml penicillin and 0.1 mg/ml streptomycin. BRCA1-deficient cell line MDA-MB-436 was maintained in RPMI-1640 supplemented with 10% FBS, 100 units/ml penicillin and 0.1 mg/ml streptomycin. Both two cell lines were kept at 95% humidity and 5% CO2 in a 37° C. incubator.
(§2) The number of tumor cells seeded per well of a 96-well plate was optimized for each cell line to ensure logarithmic growth over the 7 days treatment period. Cells were left to attach for 16 hours and then treated with specific concentrations of test compounds. Following a 7-day exposure to the compound, the growth-inhibitory activity of compounds was determined using CellTiter-Glo luminescent cell viability assay (Promega). Luminescent signal was measured using PHERAstar FS reader (BMG Labtech). Cell viability was expressed as relative to mock treatment control. EC50 values for growth inhibition were calculated by fitting dose-dependent data to the four-parameter logistic model using XLfit software.
For orientation: ATP-based viability assays read luminescence as a measure of living cells.

A further data set concerns MDA-MB-231 cells. Nature of the data set: Growth inhibition, CellTiter-Glo, 7-day exposure, MDA-MB-231. The class given is cell-based. Conditions: BRCA wild type. On the procedure: as §1, §2
Data set [4] concerns Intracellular PARP activity. The class given is cell-based. The note with it: HeLa cells, H2O2 200 μM; read-out: IC50 (nM) in PARylation assay.
Description: Upon incubation with hydrogen peroxide (H2O2), Intracellular PARP activity was induced and endogenous PAR level was elevated. The assay was performed as follows:
Cells were plated into a 96-well plate with clear bottom and black wall at a density of 5000 cells per well (100 μL). […] In the following day, H2O2 solution in PBS (final concentration 200 μM) was added and the plate was kept at 37° C. for 5 minutes. Then the medium was gently removed by plate inversion, and the cells were fixed by ice-cold MeOH at −20° C. for 20 minutes. […] After removal of solution and repeated wash with PBS, the PAR polymer level was estimated by ArrayScan VTI (ThermoFisher). Percent inhibition was determined on the basis of the residual enzyme activity in the presence of increasing PARP inhibitor concentration. IC50 values were calculated by fitting dose-dependent data to the four-parameter logistic model using XLfit software.
A further data set concerns the target hERG current (Homo sapiens, UniProt Q12809). Nature of the data set: hERG current. The class given is cell-based. A general note: hERG is a cardiac potassium channel; its block is linked to QT prolongation.
The target of the next data set is CYP2C9 (Homo sapiens, UniProt P11712). As to the kind of experiment: CYP2C9 inhibition. The class given is in vitro ADME.
Chain of CYP2C9 (P11712 whole entry): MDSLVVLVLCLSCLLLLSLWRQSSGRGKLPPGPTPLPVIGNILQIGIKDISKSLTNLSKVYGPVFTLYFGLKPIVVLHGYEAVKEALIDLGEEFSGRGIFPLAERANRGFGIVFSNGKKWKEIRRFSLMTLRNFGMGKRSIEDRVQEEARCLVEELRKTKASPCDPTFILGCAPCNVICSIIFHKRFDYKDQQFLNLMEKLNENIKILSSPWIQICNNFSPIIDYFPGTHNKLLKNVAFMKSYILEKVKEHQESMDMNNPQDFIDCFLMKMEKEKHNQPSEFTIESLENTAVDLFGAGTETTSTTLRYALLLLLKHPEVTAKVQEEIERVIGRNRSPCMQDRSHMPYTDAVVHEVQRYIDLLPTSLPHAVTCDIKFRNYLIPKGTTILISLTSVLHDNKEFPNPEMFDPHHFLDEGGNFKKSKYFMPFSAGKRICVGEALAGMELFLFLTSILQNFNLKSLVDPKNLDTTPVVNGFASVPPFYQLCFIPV
A further data set concerns human CYP1A2. Nature of the data set: CYP1A2 induction. Format: in vitro ADME.
For another data set, the system named is rat plasma protein. As to the kind of experiment: Plasma protein binding, rat. The class given is in vitro ADME.
A short description of data set [5]: Metabolism in mouse liver microsomes. Format: in vitro ADME. In general terms: Liver microsomes are a subcellular fraction often used to study metabolism.
The nature of a further data set: Pharmacokinetics in dog. Format: in vivo. On the procedure: (§3) The species used for the pharmacokinetic studies were rat and dog. Compound A had good to excellent oral bioavailability (>40%) in both species. Elimination half-lives ranged from 3.1 to 5.0 hours in rats and 1.5 to 2.5 hours in dogs after oral administration. […] Steady state volume of distribution in rats and dogs was 2.4 L/kg and 1.9 L/kg, respectively.

Data set [6] is described as follows: Plasma protein binding, dog. The class given is in vitro ADME. The note with it: read-out: Plasma protein binding (PPB) (converted).
The test system of the next data set is PARP. Nature of the data set: In vivo pharmacodynamics: PARylation in MDA-MB-436 breast cancer xenografts. The note with it: 4 hours after single oral dose at 0.34 mg/kg or higher. Also noted: species or system BALB/c nude mice.
The nature of data set [7]: Metabolism in human liver microsomes. The class given is in vitro ADME.
Data set [8] is described as follows: Plasma protein binding, monkey. Conditions: read-out: Plasma protein binding (PPB) (converted). The class given is in vitro ADME.
Another data set relates to other CYP isozymes. Nature of the data set: Inhibition of other CYP isozymes. The class given is in vitro ADME. The note with it: human; read-out: IC50s for other CYP isozymes.
Data set [9] is described as follows: Excretion after oral administration in rats. The class given is in vivo.
Data set [10] can be described thus: Tissue distribution after oral administration in rats. Format: in vivo. The note with it: 24 hours post-dosing.
The nature of data set [11]: Metabolism in monkey liver microsomes. Format: in vitro ADME.
Data set [12] relates to BRCA1 mutation breast cancer xenograft. Nature of the data set: BRCA1 mutation breast cancer xenograft model. The class given is in vivo. The note with it: at much lower dose than olaparib.
The test system of data set [13] is intracranial H209 xenografts. Nature of the data set: Intracranial H209 xenografts, combination with TMZ. The class given is in vivo, Mice. The note with it: Compound A added to TMZ, compared to TMZ single agent.
Another data set is described as follows: Brain penetration. The note with it: in vivo.
Data set [14] in a line: Metabolism in dog liver microsomes. Format: in vitro ADME.
The test system of a further data set is human CYP2B6. Nature of the data set: CYP2B6 induction. Format: in vitro ADME.
The subject of a further data set is CYP3A, CYP2C8. As to the kind of experiment: CYP isoforms responsible for metabolism. The class given is in vitro ADME.
Another data set in a line: Pharmacokinetics in rat. Format: in vivo. The procedure:
as §3

The nature of data set [15]: Metabolism in rat liver microsomes. Format: in vitro ADME.
Data set [16] in a line: Plasma protein binding, human. The class given is in vitro ADME. The note with it: read-out: Plasma protein binding (PPB) (converted).
Data set [17] in a line: Plasma protein binding, mouse. The class given is in vitro ADME. The note with it: read-out: Plasma protein binding (PPB) (converted).
For a further data set, the system named is human CYP3A. As to the kind of experiment: CYP3A induction. The class given is in vitro ADME.
A short description of data set [18]: Nonclinical toxicity, single and repeat dose studies up to 28 days. Conditions: rats and dogs. Format: in vivo. The source says: The nonclinical toxicity profile of Compound A was characterized in both rats and dogs in single and repeat dose studies up to 28 days. The adverse effects included decrease in body weights or body weight gain and food consumption; decrease in WBC, NEUT, LYMP, RBC, HGB, HCT and APTT; and increase in PLT. The bone marrow was considered to be the major target organ and the severity of histopathological changes ranged from minimal to marked. […] […]. In summary, the available toxicological data are adequate to support the clinical development of Compound A on late stage and advanced cancer patients in phase I study. The toxicity could be monitored and manageable clinically.

The mark [19] stands for this setting: read-out: EC50 for growth inhibition, MDA-MB-231 (Table 20).

SMILES strings stand for the structures. Read-outs that look alike come from different tables or passages of the source.

Chain of hERG current (Q12809 whole entry): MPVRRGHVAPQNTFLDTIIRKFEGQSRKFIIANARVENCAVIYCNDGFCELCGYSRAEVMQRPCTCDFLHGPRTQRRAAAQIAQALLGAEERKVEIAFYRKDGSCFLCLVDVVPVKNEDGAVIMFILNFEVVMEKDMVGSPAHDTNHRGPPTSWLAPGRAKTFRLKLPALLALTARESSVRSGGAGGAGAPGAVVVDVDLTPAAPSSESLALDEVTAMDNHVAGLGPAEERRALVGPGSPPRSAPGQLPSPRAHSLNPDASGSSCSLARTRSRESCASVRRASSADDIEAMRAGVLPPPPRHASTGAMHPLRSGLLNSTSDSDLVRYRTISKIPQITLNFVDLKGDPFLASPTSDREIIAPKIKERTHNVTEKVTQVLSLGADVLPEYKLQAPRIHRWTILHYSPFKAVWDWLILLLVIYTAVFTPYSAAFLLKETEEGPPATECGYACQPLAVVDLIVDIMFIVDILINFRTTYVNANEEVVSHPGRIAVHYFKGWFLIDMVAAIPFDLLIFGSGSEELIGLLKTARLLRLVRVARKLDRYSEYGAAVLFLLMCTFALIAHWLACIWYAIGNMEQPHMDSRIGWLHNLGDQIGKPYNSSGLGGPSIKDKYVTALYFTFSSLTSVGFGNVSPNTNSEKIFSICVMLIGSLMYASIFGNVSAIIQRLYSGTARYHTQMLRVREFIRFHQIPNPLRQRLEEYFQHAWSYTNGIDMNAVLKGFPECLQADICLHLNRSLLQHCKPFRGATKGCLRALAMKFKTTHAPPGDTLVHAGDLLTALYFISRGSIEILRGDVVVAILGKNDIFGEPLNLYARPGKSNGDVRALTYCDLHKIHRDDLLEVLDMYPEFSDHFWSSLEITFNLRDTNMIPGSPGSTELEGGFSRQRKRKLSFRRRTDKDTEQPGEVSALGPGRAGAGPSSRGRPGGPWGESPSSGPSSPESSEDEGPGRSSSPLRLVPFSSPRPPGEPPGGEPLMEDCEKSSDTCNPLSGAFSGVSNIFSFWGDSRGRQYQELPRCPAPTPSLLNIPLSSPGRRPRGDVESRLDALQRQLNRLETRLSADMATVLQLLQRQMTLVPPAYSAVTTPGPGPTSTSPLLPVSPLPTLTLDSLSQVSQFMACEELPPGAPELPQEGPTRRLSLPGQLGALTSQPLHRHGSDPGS
Chain of PARP2 (aa2-583) (Q9UGN5 2-583): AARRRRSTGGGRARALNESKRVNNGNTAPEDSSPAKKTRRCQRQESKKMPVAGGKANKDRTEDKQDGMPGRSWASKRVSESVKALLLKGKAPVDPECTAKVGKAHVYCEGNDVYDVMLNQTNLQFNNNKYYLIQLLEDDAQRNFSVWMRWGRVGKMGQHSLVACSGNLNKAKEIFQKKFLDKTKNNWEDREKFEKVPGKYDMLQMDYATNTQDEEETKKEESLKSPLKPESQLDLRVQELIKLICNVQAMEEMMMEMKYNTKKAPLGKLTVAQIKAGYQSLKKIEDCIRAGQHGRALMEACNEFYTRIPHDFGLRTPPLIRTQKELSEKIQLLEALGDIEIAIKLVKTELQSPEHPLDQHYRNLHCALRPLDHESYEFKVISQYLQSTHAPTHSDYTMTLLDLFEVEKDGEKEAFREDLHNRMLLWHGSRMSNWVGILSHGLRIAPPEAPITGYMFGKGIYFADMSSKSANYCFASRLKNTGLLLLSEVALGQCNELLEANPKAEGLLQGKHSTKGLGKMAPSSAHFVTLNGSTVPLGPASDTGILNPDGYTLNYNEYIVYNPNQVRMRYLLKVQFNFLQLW
Description for PARP2 (aa2-583): PARP1 and PARP2 enzymes were from the assay kits, while TNKS1 and TNKS2 enzymes were produced in-house. The assays were performed according to the manufacture's instruction. Briefly, H2A and H2B proteins were immobilized on the surface of plates and then incubated with a serial dilution of compounds and the target enzyme for 0.5 hr. Then, biotinylated NAD and DNA (no DNA needed for TNKS1 or TNKS2) were added to the wells to initiate reactions. The biotinylated PARsylation product was measured by chemiluminescence after adding streptavidin-HRP and HRP substrates.

One may read the solubility as the dissolved amount per volume that the medium holds. Consider `C[C@]12CCCN1CC1=NNC(=O)c3cc(F)cc4[nH]c2c1c34` [Compound A sesqui-hydrate, (R)-2-fluoro-10a-methyl-7,8,9,10,10a,11-hexahydro-5,6,7a,11-tetraazacyclohepta[def]cyclopenta[a]fluoren-4(5H)-one sesqui-hydrate], for which the “clinical safety and tolerability” value in [1] (25 subjects, 2.5-120 mg bid, capsules) was “safe and well tolerated”. For the same compound, the IC50 against PARP2 (aa2-583) turned out to be 0.00092 µM. Besides, the hygroscopicity entry in “Hygroscopicity” is given as “slightly hygroscopic”. Moreover, the “crystal form and optical purity on storage” value in data set [2] (25° C./60% RH and 40° C./75% RH, up to 12 months) is “no crystal form and optical purity changes were observed”. The “Assay w/w, T12” value in data set [2] (25° C./60% RH) worked out at 99.0%; in data set [2] (40° C./75% RH) it was 98.9%. Moreover, the results for the “Assay w/w, T0” value in data set [2] (25° C./60% RH) and in data set [2] (40° C./75% RH) were 99.1% and 99.0%, respectively. Further, the “solubility in simulated gastric fluid (SGF)” value in the data set “Solubility study” (SGF, pH=1.2) is 4500 µg/mL. Also, the solubility was around 4500 µg/mL in “Solubility study” (simulated gastric fluid (SGF), pH 1.2, simulated gastric fluid, SGF, pH=1.2, read-out: solubility in simulated gastric fluid (SGF)) and around 40 µg/mL in “Solubility study” (water, read-out: solubility in water). This compound registered a solubility in water in the data set “Solubility study” (water) of 40 µg/mL.

Broadly, the EC50 is the midpoint of the concentration-response curve. For the compound `O=C(c1cc(Cc2n[nH]c(=O)c3ccccc23)ccc1F)N1CCN(C(=O)C2CC2)CC1` [Olaparib, olaparib, reference compound], the EC50 is 0.021 ± 0.007 µM in data set [3] and around 5 µM in the data set on MDA-MB-231 cells (setting [19]).

For `C[C@]1(c2nc3c(C(N)=O)cccc3[nH]2)CCCN1` [Veliparib, veliparib, reference compound], the EC50 in data set [3] was 0.82 ± 0.3 µM; in the data set with MDA-MB-231 cells (setting [19]), above 10 µM. In addition, the IC50 in [4] was 2.66 nM.

A word on the clearance: it is the rate of elimination divided by the concentration. What is called bioavailability is dose-corrected exposure relative to a reference, in per cent. As to `C[C@]12CCCN1CC1=NNC(=O)c3cc(F)cc4[nH]c2c1c34` [Compound A, (R)-2-fluoro-10a-methyl-7,8,9,10,10a,11-hexahydro-5,6,7a,11-tetraazacyclohepta[def]cyclopenta[a]fluoren-4(5H)-one], the IC50 on hERG current was 26 µM; at CYP2C9 it was 6.48 µM; with other CYP isozymes, above 10 µM. Further, the clinical response result in data set [1] (BRCA1/2 mutant ovary cancer patients) is on record as “partial or complete responses”. Moreover, the “induction of human CYP1A2” value in the data set on human CYP1A2 is “not an inducer”. In addition, the “Plasma protein binding (PPB)” value in the data set with rat plasma protein is 84.9%. For the same compound, the mutagenicity entry in “Ames assay” is recorded as “No mutagenicity”. For the same compound, the rate of metabolism entry in data set [5] is “slowly”; in data set [7] it was “slowly”; in [11] it was “quickly”; in data set [14], “slowly”; in data set [15] it was “slowly”. In addition, the “accumulation following multiple oral dosing” value in “Pharmacokinetics in dog” and in the data set “Pharmacokinetics in rat” was “no accumulation” throughout. Moreover, the clearance in “Pharmacokinetics in dog” (in vivo, dogs) lay in the range of 18.3 to 18.5 mL/min/kg; in “Pharmacokinetics in rat” (in vivo, rats), 8.67 to 15.2 mL/min/kg. Besides, the half-life in the data set “Pharmacokinetics in dog” (in vivo, dogs, oral administration, read-out: Elimination half-lives) lay in the range of 1.5 to 2.5 h; in “Pharmacokinetics in rat” (in vivo, rats, oral administration, read-out: Elimination half-lives), 3.1 to 5 h. Also, the Vd in the data set “Pharmacokinetics in dog” (in vivo, dogs, read-out: Steady state volume of distribution) was determined as 1.9 L/kg; in “Pharmacokinetics in rat” (in vivo, rats, read-out: Steady state volume of distribution) it was 2.4 L/kg. Also, the bioavailability in “Pharmacokinetics in dog” (in vivo, po) is above 40%; in “Pharmacokinetics in rat” (in vivo, po), above 40%. For the same compound, the fraction unbound in data set [6] is 0.21; in data set [8], 0.111; in data set [16] it was 0.043; in data set [17], 0.15. Besides, the “inhibition of PARylation” value in the data set with PARP is “Potent inhibition of PARylation”. For the same compound, the “excreted in urine and bile” value in data set [9] is recorded as “Less than 1%”. In addition, in data set [10], the “organ drug concentration as % of the peak concentration” value is listed as “less than 10%”. For the same compound, the tumor regression entry in data set [12] is recorded as “significantly induces tumor regression”. Besides, the animal survival result in data set [13] is given as “significantly prolonged animal survival”. Moreover, the brain penetration entry in “Brain penetration” is “significant brain penetration”. In data set [3] (BRCA1-deficient), the “sensitivity of MDA-MB-436 cells” value is given as “profoundly sensitive”. The EC50 in data set [3] (Homo sapiens, MDA-MB-436, 168 h) was 0.041 ± 0.015 µM; in the data set on MDA-MB-231 cells (Homo sapiens, MDA-MB-231, 168 h, read-out: EC50 for growth inhibition, MDA-MB-231) it was around 9 µM; in the data set on MDA-MB-231 cells (Homo sapiens, MDA-MB-231, 168 h, read-out: EC50 for growth inhibition, MDA-MB-231 (Table 20)), around 9 µM. Besides, in the data set on human CYP2B6, the “induction of human CYP2B6” value was “not an inducer”. Besides, in the data set on CYP3A, CYP2C8, the “CYP isoform responsible for metabolism” value is recorded as “CYP3A was the major CYP isoform”. Besides, the “induction of human CYP3A” value in the data set on human CYP3A is “not an inducer”. The character of toxicity result in [18] (28-day recovery phase) is “dose dependent, correlated with systemic exposure and reversible”. Moreover, the “major target organ of toxicity” value in [18] (up to 28 days) is given as “bone marrow”.

Source of the values: US10457680B2, “Process for preparing a PARP inhibitor, crystalline forms, and uses thereof” (BeiGene, Ltd., priority 2015, dated 2019).
